Where two headings read alike, the source gives them in different places.
Assay: Phase 1 study Part 2: food effect on plasma PK of LUM-201 capsule
Assay type: in vivo, human
Conditions: for % AUCex, Arithmetic Mean / % AUCex, Geometric Mean / Clast, Arithmetic Mean / Clast, Geometric Mean / tlag, Median / tlast, Median / λz, Arithmetic Mean / λz, Geometric Mean / AUC(0-inf) / AUC(0-t) / Cmax / half-life / Tmax: oral; for AUC(0-inf) / AUC(0-t) / Cmax / half-life / Tmax: human, plasma, po, 85.3 mg; for Tmax: read-out: tmax, Median
Text: This was a single center, open-label, randomized, Phase 1 study in healthy adult subjects. This study consisted of 2 parts: Part 1 was a 4-sequence, 4-treatment, 4 Treatment Periods, crossover study to determine the relative bioavailability of current tablets to new capsule formulations of LUM-201; Part 2 was a 2-sequence, 2-treatment, 2 Treatment Periods, crossover study to evaluate the food effect on the bioavailability of the new capsule formulation of LUM-201. An individual subject was allowed to participate in only 1 part (Part 1 or Part 2) of the study. Forty subjects were planned and enrolled in this study. • Part 1: A total of 28 subjects were planned and enrolled in Part 1. Part 1 consisted of 4 sequences, each having 4 Treatment Periods enrolling 7 subjects (1:1:1:1 ratio). During Treatment Periods 1 through 4, each subject received 4 single oral doses of LUM-201 drug product in a randomized, crossover order. • Part 2: A total of 12 subjects were planned and enrolled in Part 2. Part 2 consisted of 2 sequences, each having 2 Treatment Periods enrolling 6 subjects (1:1 ratio). Each subject received a single oral dose of LUM-201 at each Treatment Period. During Treatment Periods 1 and 2, each subject received 2 single oral doses of LUM-201 in a randomized, crossover order. • On Day 1 of Treatment Period 1, subjects were administered the assigned treatment (A or B) as randomized, followed by a washout of at least 3 days between Treatment Periods 1 and 2. Subjects stayed in-house (not discharged) between the Treatment Periods. • Treatment A was dosed at 85.3 mg capsule formulation of LUM-201 (intact capsule consumed unopened) consumed while subject was in a fasted state with 240 mL of water. • Treatment B was dosed at 85.3 mg capsule formulation of LUM-201 (intact capsule consumed unopened) consumed 30 minutes after start of a high-fat meal with 240 mL of water. • Subjects were discharged from the study center on the morning of Day 3 of Treatment Period 2 after the scheduled study assessments had been completed.
Fasted Treatment Period (Treatments A): Each subject received a single dose of LUM-201 in the morning of Day 1 after an overnight fast of at least 10 hours.
Treatment A was dosed at 85.3 mg capsule formulation of LUM-201 (intact capsule consumed unopened) consumed while subject was in a fasted state with 240 mL of water.
Fed Treatment Period (Treatment B): On the morning of Day 1, following an overnight fast of at least 10 hours, a high-fat breakfast (approximately 800 to 1000 calories) was served approximately 30 minutes before the planned dosing time. Subjects were required to eat the entire breakfast in less than 30 minutes.
Treatment B was dosed at 85.3 mg capsule formulation of LUM-201 (intact capsule consumed unopened) consumed 30 minutes after the start of the high-fat breakfast with 240 mL of water according to the FDA Guidance 20225. […]

[1] = 85.3 mg capsule with food vs fasted, statistically significant
[2] = Part 2, Treatment A: 85.3 mg capsule, fasted
[3] = Part 2, Treatment B: 85.3 mg capsule, 30 minutes after start of high-fat meal

CC(C)(N)C(=O)N[C@H](COCc1ccccc1)C(=O)N1CCC2(CC1)CN(S(C)(=O)=O)c1ccccc12 [LUM-201, N-[1(R)-[(1,2-dihydro-1-methanesulfonylspiro[3H-indole-3,4′-piperdin]-yl)carbonyl]-2-(phenylmethyloxy)ethyl]-2-amino-2-methylpropanamide methanesulfonate]
food effect on tmax (85.3 mg capsule with food vs fasted): no significant effect
increase of AUC0-inf with food [1]: 17.8%
increase of AUC0-last with food [1]: 17.8%
increase of Cmax with food [1]: 64.4%
% AUCex, Arithmetic Mean [2]: 1.868%
% AUCex, Geometric Mean [2]: 1.689%
Clast, Arithmetic Mean [2]: 0.7762 ng/mL
Clast, Geometric Mean [2]: 0.7216 ng/mL
tlag, Median [2]: 0.2489 h
tlast, Median [2]: 48.03 h
λz, Arithmetic Mean [2]: 0.0874 h⁻¹
λz, Geometric Mean [2]: 0.0848 h⁻¹
% AUCex, Arithmetic Mean [3]: 2.081%
% AUCex, Geometric Mean [3]: 1.845%
Clast, Arithmetic Mean [3]: 0.9223 ng/mL
Clast, Geometric Mean [3]: 0.8783 ng/mL
tlag, Median [3]: 0.2906 h
tlast, Median [3]: 48.00 h
λz, Arithmetic Mean [3]: 0.0829 h⁻¹
λz, Geometric Mean [3]: 0.0803 h⁻¹
AUC(0-inf) (Part 2, Treatment A: 85.3 mg capsule, fasted, read-out: AUC0-inf, Arithmetic Mean): 538 ng·h/mL
AUC(0-inf) (Part 2, Treatment A: 85.3 mg capsule, fasted, read-out: AUC0-inf, Geometric Mean): 504 ng·h/mL
AUC(0-t) (Part 2, Treatment A: 85.3 mg capsule, fasted, read-out: AUC0-last, Arithmetic Mean): 528 ng·h/mL
AUC(0-t) (Part 2, Treatment A: 85.3 mg capsule, fasted, read-out: AUC0-last, Geometric Mean): 494 ng·h/mL
Cmax (Part 2, Treatment A: 85.3 mg capsule, fasted, read-out: Cmax, Arithmetic Mean): 87.3 ng/mL
Cmax (Part 2, Treatment A: 85.3 mg capsule, fasted, read-out: Cmax, Geometric Mean): 80.5 ng/mL
half-life (Part 2, Treatment A: 85.3 mg capsule, fasted, read-out: t1/2, Arithmetic Mean (converted)): 8.39 h
half-life (Part 2, Treatment A: 85.3 mg capsule, fasted, read-out: t1/2, Geometric Mean (converted)): 8.17 h
Tmax [2]: 1.53 h
AUC(0-inf) (Part 2, Treatment B: 85.3 mg capsule, 30 minutes after start of high-fat meal, read-out: AUC0-inf, Arithmetic Mean): 626 ng·h/mL
AUC(0-inf) (Part 2, Treatment B: 85.3 mg capsule, 30 minutes after start of high-fat meal, read-out: AUC0-inf, Geometric Mean): 591 ng·h/mL
AUC(0-t) (Part 2, Treatment B: 85.3 mg capsule, 30 minutes after start of high-fat meal, read-out: AUC0-last, Arithmetic Mean): 614 ng·h/mL
AUC(0-t) (Part 2, Treatment B: 85.3 mg capsule, 30 minutes after start of high-fat meal, read-out: AUC0-last, Geometric Mean): 579 ng·h/mL
Cmax (Part 2, Treatment B: 85.3 mg capsule, 30 minutes after start of high-fat meal, read-out: Cmax, Arithmetic Mean): 151 ng/mL
Cmax (Part 2, Treatment B: 85.3 mg capsule, 30 minutes after start of high-fat meal, read-out: Cmax, Geometric Mean): 134 ng/mL
half-life (Part 2, Treatment B: 85.3 mg capsule, 30 minutes after start of high-fat meal, read-out: t1/2, Arithmetic Mean (converted)): 8.87 h
half-life (Part 2, Treatment B: 85.3 mg capsule, 30 minutes after start of high-fat meal, read-out: t1/2, Geometric Mean (converted)): 8.61 h
Tmax [3]: 1.5 h
